Experimental data from patent publication US20040171566A1, “Antisense modulation of p38 mitogen activated protein kinase expression” (priority 1999, published 2004).
e = 2'-O-(2-methoxyethyl) (MOE); d = 2'-deoxy (DNA)

Columns and labels:
[1] = tested on: mouse p38α mRNA; assay: Mouse p38α mRNA levels in bEND.3 cells, quantitative real-time PCR; assay type: cell-based; design: % Inhib. mouse p38α: concentration or dose not given beside the values; conditions: bEND.3 cells, mRNA by quantitative real-time PCR, average of two experiments
Description: (§1) Quantitation of p38α mRNA levels was accomplished by real-time quantitative PCR using the ABI PRISM™ 7600, 7700, or 7900 Sequence Detection System (PE-Applied Biosystems, Foster City, Calif.) according to manufacturer's instructions. This is a closed-tube, non-gel-based, fluorescence detection system which allows high-throughput quantitation of polymerase chain reaction (PCR) products in real-time. As opposed to standard PCR in which amplification products are quantitated after the PCR is completed, products in real-time quantitative PCR are quantitated as they accumulate. This is accomplished by including in the PCR reaction an oligonucleotide probe that anneals specifically between the forward and reverse PCR primers, and contains two fluorescent dyes. A reporter dye (e.g., FAM or JOE, obtained from either PE-Applied Biosystems, Foster City, Calif., Operon Technologies Inc., Alameda, Calif. or Integrated DNA Technologies Inc., Coralville, Iowa) is attached to the 5′ end of the probe and a quencher dye (e.g., TAMRA, obtained from either PE-Applied Biosystems, Foster City, Calif., Operon Technologies Inc., Alameda, Calif. or Integrated DNA Technologies Inc., Coralville, Iowa) is attached to the 3′ end of the probe. When the probe and dyes are intact, reporter dye emission is quenched by the proximity of the 3′ quencher dye. During amplification, annealing of the probe to the target sequence creates a substrate that can be cleaved by the 5′-exonuclease activity of Taq polymerase. […] With each cycle, additional reporter dye molecules are cleaved from their respective probes, and the fluorescence intensity is monitored at regular intervals by laser optics built into the ABI PRISM™ Sequence Detection System. In each assay, a series of parallel reactions containing serial dilutions of mRNA from untreated control samples generates a standard curve that is used to quantitate the percent inhibition after antisense oligonucleotide treatment of test samples.
(§2) Prior to quantitative PCR analysis, primer-probe sets specific to the target gene being measured are evaluated for their ability to be “multiplexed” with a GAPDH amplification reaction. In multiplexing, both the target gene and the internal standard gene GAPDH are amplified concurrently in a single sample. In this analysis, mRNA isolated from untreated cells is serially diluted. Each dilution is amplified in the presence of primer-probe sets specific for GAPDH only, target gene only (“single-plexing”), or both (multiplexing). Following PCR amplification, standard curves of GAPDH and target mRNA signal as a function of dilution are generated from both the single-plexed and multiplexed samples. If both the slope and correlation coefficient of the GAPDH and target signals generated from the multiplexed samples fall within 10% of their corresponding values generated from the single-plexed samples, the primer-probe set specific for that target is deemed multiplexable. Other methods of PCR are also known in the art.
(§3) PCR reagents were obtained from Invitrogen Corporation, (Carlsbad, Calif.). […] The RT reaction was carried out by incubation for 30 minutes at 48° C. Following a 10 minute incubation at 95° C. to activate the PLATINUM® Taq, 40 cycles of a two-step PCR protocol were carried out: 95° C. for 15 seconds (denaturation) followed by 60° C. for 1.5 minutes (annealing/extension).
(§4) Gene target quantities obtained by real time RT-PCR are normalized using either the expression level of GAPDH, a gene whose expression is constant, or by quantifying total RNA using RiboGreen™ (Molecular Probes, Inc. Eugene, Oreg.). GAPDH expression is quantified by real time RT-PCR, by being run simultaneously with the target, multiplexing, or separately. Total RNA is quantified using RiboGreen™ RNA quantification reagent (Molecular Probes, Inc. Eugene, Oreg.). Methods of RNA quantification by RiboGreen™ are taught in Jones, L. J., et al, (Analytical Biochemistry, 1998, 265, 368-374). […]

[2] = tested on: rat p38α mRNA; assay: Rat p38α mRNA levels in NR-8383 cells, quantitative real-time PCR; assay type: cell-based; conditions: 300 nM oligonucleotide with FuGENE 6, 24 hours, mRNA by quantitative real-time PCR, average of two experiments
Description: as §1, §2, §3, §4

Substance | % Inhib. mouse p38α [1] | % Inhib. rat p38α [2]
320151 (antisense GAAGGAACCACACTCTCTAA; sugars from the 5' end e5 d10 e5, all phosphorothioate, methylation of C not given here) [compound 320151] | 90% | 47%
320152 (antisense TTTGCCCTTTCTCCCCATCA; sugars from the 5' end e5 d10 e5, all phosphorothioate, methylation of C not given here) [compound 320152] | 93% | 66%
320153 (antisense AATATTAAAATAATTTGCCC; sugars from the 5' end e5 d10 e5, all phosphorothioate, methylation of C not given here) [compound 320153] | 0% | 22%
320154 (antisense TCATGTTTATAAAGGTGAAA; sugars from the 5' end e5 d10 e5, all phosphorothioate, methylation of C not given here) [compound 320154] | 52% | 50%
320155 (antisense CCCTGAGGATTCATGTTTAT; sugars from the 5' end e5 d10 e5, all phosphorothioate, methylation of C not given here) [compound 320155] | 93% | 73%
320156 (antisense GGAATTGGCTTTACACTTTC; sugars from the 5' end e5 d10 e5, all phosphorothioate, methylation of C not given here) [compound 320156] | 91% | 64%
320157 (antisense CGTCCAACACTGGAATTGGC; sugars from the 5' end e5 d10 e5, all phosphorothioate, methylation of C not given here) [compound 320157] | 96% | 71%
320158 (antisense CCTTCTGGGCTCCAAATGAT; sugars from the 5' end e5 d10 e5, all phosphorothioate, methylation of C not given here) [compound 320158] | 91% | 71%
320159 (antisense TCTGACATCCTATGGCATAC; sugars from the 5' end e5 d10 e5, all phosphorothioate, methylation of C not given here) [compound 320159] | 94% | 69%
320160 (antisense GTTAATATGGTCTGTACCAG; sugars from the 5' end e5 d10 e5, all phosphorothioate, methylation of C not given here) [compound 320160] | 53% | 43%
320161 (antisense GCTGAAGCTGGTTAATATGG; sugars from the 5' end e5 d10 e5, all phosphorothioate, methylation of C not given here) [compound 320161] | 80% | 66%
320162 (antisense CGCATTATCTGCTGAAGCTG; sugars from the 5' end e5 d10 e5, all phosphorothioate, methylation of C not given here) [compound 320162] | 92% | 62%
320163 (antisense TGTTAATGAGATAAGCAGGG; sugars from the 5' end e5 d10 e5, all phosphorothioate, methylation of C not given here) [compound 320163] | 0% | 40%
320164 (antisense CTTGGCATCCTGTTAATGAG; sugars from the 5' end e5 d10 e5, all phosphorothioate, methylation of C not given here) [compound 320164] | 80% | 73%
320165 (antisense TGCCTCATGGCTTGGCATCC; sugars from the 5' end e5 d10 e5, all phosphorothioate, methylation of C not given here) [compound 320165] | 81% | 53%
320166 (antisense ACTGAATGTAGTTTCTTGCC; sugars from the 5' end e5 d10 e5, all phosphorothioate, methylation of C not given here) [compound 320166] | 53% | 35%
320167 (antisense CTTGCCTGTAAAAACACAGA; sugars from the 5' end e5 d10 e5, all phosphorothioate, methylation of C not given here) [compound 320167] | 7% | 11%
320168 (antisense TCACCTCATGGCTTGGCATC; sugars from the 5' end e5 d10 e5, all phosphorothioate, methylation of C not given here) [compound 320168] | 83% | 56%
320169 (antisense TTTGTTCTCACCTCATGGCT; sugars from the 5' end e5 d10 e5, all phosphorothioate, methylation of C not given here) [compound 320169] | 92% | 64%
320170 (antisense TGCTGGCTATACACAGACAC; sugars from the 5' end e5 d10 e5, all phosphorothioate, methylation of C not given here) [compound 320170] | 83% | 55%
320171 (antisense TGGAAAACTGTTTTGTCAAA; sugars from the 5' end e5 d10 e5, all phosphorothioate, methylation of C not given here) [compound 320171] | 35% | 2%
320172 (antisense ACTCTCGCGAGAACAGCTCC; sugars from the 5' end e5 d10 e5, all phosphorothioate, methylation of C not given here) [compound 320172] | 39% | 0%
320173 (antisense TCCCACAGGCAGCGGCCGGG; sugars from the 5' end e5 d10 e5, all phosphorothioate, methylation of C not given here) [compound 320173] | 160% | 250%
